Patent publication US5104859A, “Continuous administration of adenosine to reduce pulmonary vascular resistance” (priority 1990, dated 1992)
Entries after “also recorded” stand apart in the source; their conditions may differ.

Columns and labels:
cardiovascular system = experiment: General activity profile of adenosine by continuous infusion; conditions: for tachyphylaxis / rebound hypertension (words): hypotension
central hemodynamics = experiment: Per cent change of hemodynamics: adenosine, SNP and TNG induced controlled hypotension during cerebral aneurysm surgery; type: in vivo, human
Procedure: One hour before the operation the patients were premedicated orally with diazepam (10-20 mg.) Atropine (0.5 mg) and droperidol (0.1 mg. per kg.) were given intravenously before induction of anesthesia. Induction was started with thiopental (5 mg. per kg) followed by phenoperidine (1-2 mg), a synthetic opiate with pharmacodymanics resembling fentanyl but with a longer duration of action and 1/10 of its analgesic potency.
Pancuronium bromide (0.1 mg per kg) was given to facilitate endotracheal intubation. Anesthesia was maintained by supplementary doses of phenoperidine and droperidol, as required. […] Phenoperidine was supplemented regularly to prevent the blood pressure from exceeding the preanesthetic level (approx. 1 mg/30-60 min). Controlled hyperventilation was employed with a humidified gas mixture of 60% N2 O in oxygen to maintain PaCO2 values at approximately 30 mmHg (±1.5/SEM). Mannitol (1-1.5 g. per kg) was given routinely at the start of the operation (e.g., 1-2 hours prior to the controlled hypotension). The patients were operated on in the horizontal supine position.
A 1.2-mm plastic cannula was introduced into the left radial artery to monitor systemic arterial blood pressure (MABP) and collect arterial blood. A balloon-tipped, flow-directed, quadruple lumen Swan-Ganz catheter (Model 93A-831-7.5 F, VIP) was inserted percutaneously via the left basilic vein, and its correct position in the pulmonary artery was determined by pressure tracings. The catheter was used for the monitoring of mean right atrial pressure (RAP), mean pulmonary artery pressure (PAP), and mean pulmonary capillary wedge pressure (PCWP) for the determination of cardiac output and collection of mixed venous blood and for the infusion of adenosine. Another plastic cannula was introduced percutaneously, in a retrograde direction, into the right jugular bulb for the collection of blood. The correct position was verified by x-ray.
The ECG was monitored with a standard chest (V5) lead. Heart rate was determined from the R-R interval. Blood pressures were measured by transducers placed at the midthoracic level. Cardiac output (QT) was determined in triplicate according to the thermodilution technique with a cardiac output computer (Edwards Lab, model 9510). Isotonic glucose, 10 ml at 1° C., was used as a thermal indicator. The ECG, heart rate, blood pressures, and thermodilution curves were recorded on a Grass® polygraph.
The infusion was started at a rate of 0.01 mg. per kg. per minute, which was doubled at 15 second intervals until the desired MABP level of 40-50 mmHg was reached. […] Serum creatinine was determined before and on two consecutive days after operation. The standard ECG was recorded the day before and the day after operation.
Subsequent to the tests described above, a 20 mM solution of adenosine in isotonic saline was administered to 50 surgical patients employing techniques similar to those described, except that pretreatment with dipyridamole was omitted.

[1] = Fredholm and Sollevi; cited from earlier work
platelets = experiment: Platelet protection during cardiopulmonary bypass; type: in vivo, human
Procedure: Twenty-five patients scheduled for coronary artery bypass surgery were randomly assigned to two groups--one with adenosine infusion (n=13) and the other with placebo infusion (n=12).
Intravenous anesthesia was used, either high-dose fentanyl (100-150 ug/kg) or balanced anesthesia (thiopental, fentanyl, diazepam and N2 O/O2.
During cardiopulmonary bypass (CPB), mean arterial blood pressure (MABP) above 70 mmHg was treated with the vasodilator sodium nitroprusside (SNP), except in the final phase or rewarming. CPB was performed with SARN roller pump and a Shiley oxygenator (100A) primed with 2000 ml crystalloid solution (75 mg heparin). The perfusion rate was kept at approximately […] body surface. Moderate hypothermia (25° C.) was induced. Cardioplegia was obtained with Ringer's solution (with added potassium up to 20 mM/1). Heparin (3 mg/kg) was administered as a bolus injection before cannulation. The heparin effect was controlled by measurements of activated clotting time. (Hemocron® Int. Technidyne Corp, USA). […] At the termination of CPB, the heparin effect was antagonized with protamine (c. 1.3 mg/mg heparin). ACT was checked 10-20 min after the protamine injection. ACT values 120 sec were considered satisfactory.
Platelet count (Linson 431 A cell counter) and hematocrit were determined in arterial samples before anesthesia, after thoracotomy, during CPB at 10, 20, 40, 60, 80 and 100 min, 30 min after CPB and on the postoperative day. Platelet counts were expressed in percentage of preanesthesia levels and were corrected for hemodilution. MABP was monitored continuously via a catheter introduced in the radial artery. All patients received hypertonic mannitol (1-1.5 g/kg) during CPB and urine production was calculated as ml/.min of CPB (Table VI). […]
Statistical significance (controls v. adenosine group) was determinted with Student's t-test for unpaired data. For significance within the groups the Wilcoxon Rank Sum test was used. p […] 0.05 was regarded as significant.

SMILES: Nc1ncnc2c1ncn2[C@@H]1O[C@H](CO)[C@@H](O)[C@H]1O [adenosine]
- toxicity (cardiovascular system; amounts used in accordance with the invention): essentially non-toxic
- after-load and pre-load (cardiovascular system; continuous infusion): little or no effect on cardiac pre-load; also recorded: reduce after-load, without having significant effect on pre-load
- tachyphylaxis / rebound hypertension (words) (cardiovascular system): does not cause tachyphylaxis; also recorded: rebound hypertension is avoided
- tachyphylaxis / rebound hypertension (words) (cardiovascular system; listed as Adenosine): without the occurrence of significant tachyphylaxis
- heart rate on after-load reduction (cardiovascular system; in vivo): without significantly increasing heart rate
- HR, change from control (central hemodynamics; Table IV, n = 10): +9 Per Cent from Control
- MABP, change from control (central hemodynamics; Table IV, n = 10): -43 Per Cent from Control
- PAP, change from control (central hemodynamics; Table IV, n = 10): +15 Per Cent from Control
- PCWP, change from control (central hemodynamics; Table IV, n = 10): +14 Per Cent from Control
- PVR, change from control (central hemodynamics; Table IV, n = 10): -15 Per Cent from Control
- QT (cardiac output), change from control (central hemodynamics; Table IV, n = 10): +44 Per Cent from Control
- RAP, change from control (central hemodynamics; Table IV, n = 10): +6 Per Cent from Control
- SVR, change from control (central hemodynamics; Table IV, n = 10): -61 Per Cent from Control
- oxygen tissue pressures vs nitroprusside (central hemodynamics; controlled hypotension): better preserves oxygen tissue pressures
- plasma half-life [1]: 10 to 20 s
- intergroup difference in platelet counts (platelets; 60 min to end of CPB and 30 min after CPB): significant intergroup difference in platelet counts
- infusion rate effective in protecting platelets (platelets; cardiopulmonary bypass): about 100 ug/kg/min
- Platelet Count; % of Awake Count (platelets; during CPB, 10 minutes): 96 % of Awake Count
- Platelet Count; % of Awake Count (platelets; during CPB, 20 minutes): 87 % of Awake Count
- Platelet Count; % of Awake Count (platelets; during CPB, 40 minutes): 85 % of Awake Count
- Platelet Count; % of Awake Count (platelets; during CPB, 60 minutes): 91 % of Awake Count
- Platelet Count; % of Awake Count (platelets; during CPB, 80 minutes): 100 % of Awake Count
- Platelet Count; % of Awake Count (platelets; during CPB, 100 minutes): 97 % of Awake Count
- initial platelet reduction (platelets; during adenosine infusion): small, and was significant only at 20 and 40 minutes on CPB
- Platelet Count; % of Awake Count (platelets; post CPB, 30 minutes): 88 % of Awake Count
- Platelet Count; % of Awake Count (platelets; post CPB, 24 hours): 60 % of Awake Count
